The text below walks through data of paper PMC6301270 (MedChemComm, 2018).

This experiment concerns T.b. brucei (strain 427) bloodstream form parasites. Put plainly: T.b. brucei single concentration screen (10 μM). As to conditions: Trypanosoma brucei, read-out: T.b.brucei % viability (10 µM).
As for `Cc1cc(Nc2ccc(C(F)(F)F)cc2)n2ccnc2n1` [MMV011229, CC1=NC2=NC=CN2C(NC3=CC=C(C(F)(F)F)C=C3)=C1], the viability (usually a read-out of living cells in per cent, often relative to untreated cells) at 10 µM amounted to 89%. With `COc1ccc(OC(C)C(=O)Nc2ccc(Cl)cc2C)cc1` (stereo not shown) [MMV202458, COc1ccc(OC(C)C(=O)Nc2ccc(Cl)cc2C)cc1], the viability at 10 µM was 94%. Take `Cc1nc2ccccn2c1C(=O)NCc1ccc(Cl)cc1` [MMV012074, Cc1nc2ccccn2c1C(=O)NCc3ccc(Cl)cc3]: the viability at 10 µM was found to be 102%. Turning to `Nc1cccnc1Nc1ccc(Cl)cc1` [MMV676524, Nc1cccnc1Nc2ccc(Cl)cc2], the viability at 10 µM came to 110%.

On to `Cc1ccc(-c2cc(C(=O)Nc3cccnc3)c3cc(Br)ccc3n2)cc1` [MMV016838, Cc1ccc(cc1)-c1cc(c2cc(ccc2n1)Br)C(=O)Nc1cccnc1], for which the viability at 10 µM was 87%. As to `Cc1cc2ccccc2n1CC(=O)N1CC(C(=O)N2CCCCC2)Oc2ccccc21` (stereo not shown) [MMV020520, Cc1cc2ccccc2n1CC(=O)N3CC(Oc4ccccc34)C(=O)N5CCCCC5], the viability at 10 µM turned out to be 69%. In the case of `Cc1ccc2nc(C)c(-c3ccn(Cc4ccccc4)n3)n2c1` [MMV688939, Cc1ccc2nc(C)c(c3ccn(Cc4ccccc4)n3)n2c1], the viability at 10 µM was 101%. Next, `CC(=O)N1CCc2cc3nc(C)cc(C)c3cc21` [MMV054312, CC(=O)N1CCc2cc3nc(C)cc(C)c3cc12]: 91%.

As to `Clc1ccc(-n2cc(COc3ccnc4ccccc34)nn2)cc1` [MMV675994, Clc1ccc(cc1)n2cc(COc3ccnc4ccccc34)nn2], the viability at 10 µM was determined as 91%.

Consider `CNC(=O)c1cc(S(=O)(=O)N2CCN(c3ccccn3)CC2)cs1` [MMV020136, CNC(=O)c1cc(cs1)S(=O)(=O)N2CCN(CC2)c3ccccn3], for which the viability at 10 µM is 97%. For `CC(C)(C)OC(=O)N1CCC(Cn2nc(-c3cnc4ccccc4c3)c3c(N)ncnc32)CC1` [MMV688364, CC(C)(C)OC(=O)N1CCC(Cn2nc(-c3cnc4ccccc4c3)c3c(N)ncnc23)CC1], the viability at 10 µM is 102%.

Turning to `CS(=O)(=O)Cc1nc2ccccc2oc1=O` [MMV553002, CS(=O)(=O)CC1=Nc2ccccc2OC1=O], the viability at 10 µM was determined as 114%. Turning to `COc1ccc(-c2cc(NC(=O)c3ccc(F)cc3Cl)ccc2OC)cc1` [MMV676526, COc1ccc(cc1)c2cc(NC(=O)c3ccc(F)cc3Cl)ccc2OC], the viability at 10 µM was 93%. Take `COc1ccc(C2(C(=O)Nc3ccc(Br)cc3)CCCC2)cc1` [MMV200748, COc1ccc(cc1)C2(CCCC2)C(=O)Nc3ccc(Br)cc3]: the viability at 10 µM was 100%. Take `CC(c1cc(Cl)cc(Cl)c1)N(C)c1ncc2c(N)nc(N)nc2n1` (stereo not shown) [MMV689437, CC(N(C)c1ncc2c(N)nc(N)nc2n1)c3cc(Cl)cc(Cl)c3]: the viability at 10 µM is 98%. `C[C@H](C(N)=O)N1CCCC[C@@H]1c1ccc(OCc2cccc(F)c2)cc1` [MMV676270, C[C@@H](N1CCCC[C@@H]1c2ccc(OCc3cccc(F)c3)cc2)C(=O)N]: the viability at 10 µM was determined as 97%. To `CC(C)(C)n1nc(Cc2ccc(F)c(Cl)c2)c2c(N)ncnc21` [MMV688852, CC(C)(C)n1nc(Cc2ccc(F)c(Cl)c2)c2c(N)ncnc12] belongs 87%.

Turning to `CCc1nc2ccc(C(=O)NCc3ccc4c(c3)OCO4)cn2c1N(C)Cc1cccs1` [MMV407539, CCc1nc2ccc(cn2c1N(C)Cc3cccs3)C(=O)NCc4ccc5OCOc5c4], the viability at 10 µM stood at 82%.

As to `c1ccc(-c2[nH]c3ccccc3c2C(c2ccccn2)N2CCCC2)cc1` (stereo not shown) [MMV688762, C1CCN(C1)C(c2ccccn2)c3c([nH]c4ccccc34)c5ccccc5], the viability at 10 µM stood at 108%.

As for `Cc1cc(NCC(C)C)c2n[nH]c(-c3ccccc3)c2n1` [MMV021375, CC(C)CNc1cc(nc2c([nH]nc12)-c1ccccc1)C], the viability at 10 µM amounted to 64%. `O=C(c1ccco1)N(CCCn1ccnc1)c1nc2c(Cl)cccc2s1` [MMV688936, Clc1cccc2sc(nc12)N(CCCn3ccnc3)C(=O)c4occc4]: the viability at 10 µM was 92%.

As for `Cc1ccccc1CN1CCC(O)(c2ccc(Cl)c(C(F)(F)F)c2)CC1` [MMV688846, Cc1ccccc1CN2CCC(O)(CC2)c3ccc(Cl)c(c3)C(F)(F)F], the viability at 10 µM was found to be 98%. As for `Cc1ccccc1C(=O)N1N=C(Nc2ccccc2)SC1(C)C` [MMV688771, Cc1ccccc1C(=O)N2N=C(Nc3ccccc3)SC2(C)C], the viability at 10 µM turned out to be 97%. Next, `CC(C)(CN)c1nc(-c2ccc(Cl)c(O)c2)c(-c2ccnc(N)n2)[nH]1` [MMV030734, CC(C)(CN)c1nc(c2ccc(Cl)c(O)c2)c([nH]1)c3ccnc(N)n3]: 33%; `COc1ccc(-c2cnc3ccc(NCc4ccc(S(N)(=O)=O)cc4)nn23)cn1` [MMV010545, COc1ccc(cn1)c2cnc3ccc(NCc4ccc(cc4)S(=O)(=O)N)nn23]: 97%. Take `O=C(NC1CCCCC1)N1CCN(Cc2ccc3c(c2)OCO3)CC1` [MMV676444, O=C(NC1CCCCC1)N2CCN(Cc3ccc4OCOc4c3)CC2]: the viability at 10 µM came to 109%.

With `Cc1[nH]c2cc(F)cc(F)c2c(=O)c1-c1ccc(Oc2ccc(OC(F)(F)F)cc2)cc1` [MMV671636, CC1=C(C(=O)c2c(F)cc(F)cc2N1)c3ccc(Oc4ccc(OC(F)(F)F)cc4)cc3], the viability at 10 µM was 101%. To `Cc1cc(C)n2nc(C(=O)Nc3cc(C(F)(F)F)ccc3N3CCOCC3)nc2n1` [MMV019087, Cc1cc(C)n2nc(nc2n1)C(=O)Nc3cc(ccc3N4CCOCC4)C(F)(F)F] belongs 74%; to `c1cncc(NCc2ccc(-c3cc4ccncc4cc3OC3CCNCC3)s2)c1` [MMV023969, C(Nc1cccnc1)c2ccc(s2)c3cc4ccncc4cc3OC5CCNCC5], 79%; to `Cc1ccc2oc(-c3cc(NC(=O)Cc4ccccc4)ccc3Cl)nc2c1` [MMV676509, Cc1ccc2oc(nc2c1)c3cc(NC(=O)Cc4ccccc4)ccc3Cl], 99%. As for `CCc1ccc([C@@H]2C[C@H](C(F)(F)F)n3ncc(C(=O)NCc4ccc(OC)cc4)c3N2)cc1` [MMV687180, CCc1ccc(cc1)[C@@H]2C[C@@H](n3ncc(C(=O)NCc4ccc(OC)cc4)c3N2)C(F)(F)F], the viability at 10 µM is 57%.

Consider `COc1cc(C2=NCCN2)cc2cc(-c3ccc(C4=NCCN4)cc3)oc12` [MMV688362, COc1cc(cc2cc(oc12)c3ccc(cc3)C4=NCCN4)C5=NCCN5], for which the viability at 10 µM was 35%. To `CCc1nc2ccccc2n1CC(O)COc1cc(C)ccc1Cl` (stereo not shown) [MMV676449, CCc1nc2ccccc2n1CC(O)COc3cc(C)ccc3Cl] belongs 83%; to `Cc1ccc(NC(=O)c2nc[nH]c2C(=O)Nc2nc3ccccc3[nH]2)c(C)c1` [MMV011903, Cc1ccc(NC(=O)c2nc[nH]c2C(=O)Nc3nc4ccccc4[nH]3)c(C)c1], 10%; to `Brc1cncc(-c2cc(NCCCn3ccnc3)nc(-c3ccccc3)n2)c1` [MMV661713, Brc1cncc(c1)c2cc(NCCCn3ccnc3)nc(n2)c4ccccc4], 98%. Regarding `CC(=O)N1CCN(c2ccc(Oc3ccc(Cl)cc3O)cc2)CC1` [MMV688330, CC(=O)N1CCN(CC1)c1ccc(Oc2ccc(Cl)cc2O)cc1], the viability at 10 µM worked out at 103%. Turning to `c1csc(-c2cnc3sc(NCC4CCOCC4)nn23)c1` [MMV010764, C(Nc1nn2c(cnc2s1)c3cccs3)C4CCOCC4], the viability at 10 µM turned out to be 94%. To `CNC(=O)CNc1nc(-c2ccccn2)nc2scc(-c3ccccc3)c12` [MMV1029203, CNC(=O)CNc1nc(nc2scc(c3ccccc3)c12)c4ccccn4] belongs 98%; to `COc1ccc(-c2cnc3cnc(-c4cccc(OC(C)C)c4)cn23)cc1` [MMV688270, COc1ccc(cc1)-c1cnc2cnc(cn12)-c1cccc(OC(C)C)c1], 99%; to `FC(F)(F)c1cc(NCCc2ccccc2)nc(-c2ccccn2)n1` [MMV659010, FC(F)(F)c1cc(NCCc2ccccc2)nc(n1)c3ccccn3], 82%.

Turning to `Cc1ccc(NC(=O)CC2COc3ccccc3O2)cc1Cl` (stereo not shown) [MMV676431, Cc1ccc(NC(=O)CC2COc3ccccc3O2)cc1Cl], the viability at 10 µM amounted to 77%.

For `CCCCS(=O)(=O)Nc1ccc2cnn(C)c2c1` [MMV687145, CCCCS(=O)(=O)Nc1ccc2cnn(C)c2c1], the viability at 10 µM turned out to be 95%. For the compound `COc1ccc(CN2CCOc3ccc(C(C)(O)CN(C)C)cc3C2)cc1C` (stereo not shown) [MMV008439, COc1ccc(CN2CCOc3ccc(cc3C2)C(C)(O)CN(C)C)cc1C], the viability at 10 µM amounted to 94%.

With `CCOc1ccc2cc(-c3nn(CC4CCN(C)CC4)c4ncnc(N)c34)ccc2c1` [MMV688854, CCOc1ccc2cc(ccc2c1)c3nn(CC4CCN(C)CC4)c5ncnc(N)c35], the viability at 10 µM was 33%. With `CCn1ncc2c(NC3CCOCC3)c(CNC(=O)c3ccnn3C)c(C)nc21` [MMV026356, CCn1ncc2c(NC3CCOCC3)c(CNC(=O)c4ccnn4C)c(C)nc12], the viability at 10 µM turned out to be 80%. For `Clc1ccc(CN2CCN(C3=NCCN3)CC2)cc1Cl` [MMV689060, Clc1ccc(CN2CCN(CC2)C3=NCCN3)cc1Cl], the viability at 10 µM was 101%. Turning to `O=C(NCc1ccoc1)N1CCN(Cc2ccc3c(c2)OCO3)CC1` [MMV688553, O=C(NCc1cocc1)N2CCN(Cc3ccc4OCOc4c3)CC2], the viability at 10 µM worked out at 98%.

For the compound `Cc1cccc(Cn2ccc(NC(=O)c3ccc4c(c3)OCO4)n2)c1` [MMV676386, Cc1cccc(Cn2ccc(NC(=O)c3ccc4OCOc4c3)n2)c1], the viability at 10 µM was determined as 95%. Next, `O=C1N(Cc2cc3ccccc3s2)CC2CN(Cc3ccccc3)CCN12` (stereo not shown) [MMV084603, O=C1N(Cc2cc3ccccc3s2)CC4CN(Cc5ccccc5)CCN14]: 99%; `CNC(=O)C1Cc2c([nH]c3cc(Cl)ccc23)C2(CCN(CCc3ccccc3)CC2)N1` (stereo not shown) [MMV031011, CNC(=O)C1Cc2c([nH]c3cc(Cl)ccc23)C4(CCN(CCc5ccccc5)CC4)N1]: 106%. Consider `COc1cccc(NC(=O)c2c(NC(=O)c3cccnc3)sc3c2CCC3)c1` [MMV228911, COc1cccc(NC(=O)c2c3CCCc3sc2NC(=O)c4cccnc4)c1], for which the viability at 10 µM is 97%.

As for `CC(C)c1ncc(-c2ccncc2)c([C@H]2CC[C@H](CNC(=O)c3cccnc3)CC2)n1` [MMV676442, CC(C)c1ncc(c2ccncc2)c(n1)[C@@H]3CC[C@@H](CNC(=O)c4cccnc4)CC3], the viability at 10 µM stood at 103%.
